Results: DBAASP
Converted amounts (≈) assume the structure as drawn. Blank lines part the entries; values can stand above or below the molecule they belong to.

What was measured:
Test in all cases: ≥ marks a high value that may be exact or a test limit, other limits are often not marked, values filed in µg/mL are converted to µM
[1] = tested on: Candida albicans ATCC 10231
[2] = tested on: Psychrobacter faecalis X29
[3] = tested on: Escherichia coli ATCC 25922
[4] = tested on: Serratia rubidaea X01
[5] = tested on: Enterococcus faecalis 981
[6] = tested on: Staphylococcus carnosus KHS
[7] = tested on: Bacillus licheniformis X39
[8] = tested on: Rhodococcus rhodochrous X15
[9] = tested on: Staphylococcus aureus ATCC 25923
[10] = tested on: Escherichia coli NCTC 8007
[11] = tested on: Providencia stuartii
[12] = tested on: Klebsiella sp.
[13] = tested on: Escherichia coli NCTC 10418
[14] = tested on: Proteus mirabilis
[15] = tested on: Klebsiella aerogenes
[16] = tested on: Acinetobacter sp.
[17] = tested on: Staphylococcus aureus NCTC 10571
[18] = tested on: Acinetobacter baumannii ATCC 17978
[19] = tested on: Enterobacter cloacae 218R
[20] = tested on: Pseudomonas aeruginosa H1027
[21] = tested on: Enterococcus faecalis W61950
[22] = tested on: Enterococcus faecalis ATCC 29212
[23] = tested on: Pseudomonas aeruginosa 198
[24] = tested on: Pseudomonas aeruginosa H1001
[25] = tested on: Enterococcus faecalis f43559
[26] = tested on: Bacillus subtilis C626
[27] = tested on: Escherichia coli ESBL 64771
[28] = tested on: Klebsiella pneumoniae ESBL 61962
[29] = tested on: Candida albicans ATCC 64550
[30] = tested on: Staphylococcus aureus C623
[31] = tested on: Pseudomonas aeruginosa 9
[32] = tested on: Escherichia coli O157:H7
[33] = tested on: Pseudomonas aeruginosa H1030
[34] = tested on: Enterococcus faecium t62764
[35] = tested on: Klebsiella pneumoniae ESBL 63575
[36] = tested on: Stenotrophomonas maltophilia ATCC 13637
[37] = tested on: Enterococcus faecium mic80
[38] = tested on: Pseudomonas aeruginosa PAO1 H103
[39] = tested on: Escherichia coli ESBL 63103
[40] = tested on: Pseudomonas aeruginosa LES400
[41] = tested on: Pseudomonas aeruginosa 213
[42] = tested on: Staphylococcus aureus C622
[43] = tested on: Klebsiella pneumoniae ATCC 700603
[44] = tested on: Pasteurella multocida
[45] = tested on: Micrococcus luteus
[46] = tested on: Staphylococcus aureus ATCC 9144
[47] = tested on: Bacillus cereus
[48] = tested on: Pseudomonas aeruginosa ATCC 9027
[49] = tested on: Aspergillus niger ATCC 16404
[50] = tested on: Enterococcus faecalis PCM 2673
[51] = tested on: Listeria innocua
[52] = tested on: Streptococcus pneumoniae ATCC 49619
[53] = tested on: Leuconostoc lactis
[54] = tested on: Candida glabrata ATCC 15126
[55] = tested on: Staphylococcus aureus
[56] = tested on: Staphylococcus epidermidis
[57] = tested on: Escherichia coli ATCC 23506
[58] = tested on: Escherichia coli
[59] = tested on: Streptococcus uberis

- MIC [1]: 150 µM (≈ 388 µg/mL)
- MIC [2]: 19 µM (≈ 49.1 µg/mL)
- MIC [3]: 150 µM (≈ 388 µg/mL)
- MIC [4]: 19 µM (≈ 49.1 µg/mL)
- MIC [5]: 19 µM (≈ 49.1 µg/mL)
- MIC [6]: 9 µM (≈ 23.3 µg/mL)
- MIC [7]: 9 µM (≈ 23.3 µg/mL)
- MIC [8]: 1.2 µM (≈ 3.1 µg/mL)
- MIC [9]: 9 µM (≈ 23.3 µg/mL)
SMILES: CC[C@H](C)[C@H](NC(=O)[C@H](CCCCN)NC(=O)[C@@H]1CCCN1C(=O)[C@H](CC(C)C)NC(=O)[C@H](Cc1ccccc1)NC(=O)[C@H](CC(N)=O)NC(=O)[C@H](C)NC(=O)[C@H](C)NC(=O)[C@H](CC(C)C)NC(=O)CNC(=O)[C@H](C)NC(=O)[C@@H](NC(=O)[C@@H](NC(=O)[C@@H]1CCCN1C(=O)[C@H](CC(C)C)NC(=O)[C@@H](N)Cc1ccccc1)[C@@H](C)CC)C(C)C)C(=O)N[C@H](C(=O)N[C@H]1CSSC[C@@H](C(=O)O)NC(=O)[C@H](CCCCN)NC(=O)[C@H](CCCCN)NC(=O)[C@H]([C@@H](C)O)NC(=O)[C@H]([C@@H](C)CC)NC(=O)[C@H](CCCCN)NC1=O)C(C)C [FLPIVAGLAANFLPKIVCKITKKC]

- MIC [10]: ≥ 290 µM
- MIC [11]: ≥ 1000 µM
- MIC [12]: ≥ 290 µM
- MIC [13]: ≥ 579 µM
- MIC [14]: ≥ 1000 µM
- MIC [15]: ≥ 290 µM
- MIC [16]: 0.86 µM (≈ 1.33 µg/mL)
- MIC [17]: 14 µM (≈ 21.7 µg/mL)
SMILES: CSCC[C@H](NC(=O)[C@H](CC(N)=O)NC(=O)[C@H](CCCN=C(N)N)NC(=O)[C@H](CCC(N)=O)NC(=O)[C@H](Cc1c[nH]c2ccccc12)NC(=O)[C@H](CCC(N)=O)NC(=O)[C@@H](N)Cc1ccccc1)C(=O)N[C@@H](CCCN=C(N)N)C(=O)N[C@@H](CCCCN)C(=O)N[C@H](C(=O)N[C@@H](CCCN=C(N)N)C(=O)O)C(C)C [FQWQRNMRKVR]

- MIC [18]: 5 µM (≈ 7.22 µg/mL)
- MIC [19]: 3 µM (≈ 4.33 µg/mL)
- MIC [20]: 0.8 µM (≈ 1.16 µg/mL)
- MIC [21]: ≥ 99 µM
- MIC [22]: 12 µM (≈ 17.3 µg/mL)
- MIC [23]: 1.5 µM (≈ 2.17 µg/mL)
- MIC [24]: 0.554 µM (≈ 0.8 µg/mL)
- MIC [25]: ≥ 49 µM
- MIC [26]: 20 µM (≈ 28.9 µg/mL)
- MIC [27]: 1.5 µM (≈ 2.17 µg/mL)
- MIC [28]: 25 µM (≈ 36.1 µg/mL)
- MIC [29]: ≥ 100 µM
- MIC [30]: 1.5 µM (≈ 2.17 µg/mL)
- MIC [31]: 5.9 µM (≈ 8.52 µg/mL)
- MIC [32]: 1.25 µM (≈ 1.81 µg/mL)
- MIC [33]: 3 µM (≈ 4.33 µg/mL)
- MIC [34]: 1.5 µM (≈ 2.17 µg/mL)
- MIC [35]: 6.2 µM (≈ 8.96 µg/mL)
- MIC [36]: 0.4 µM (≈ 0.578 µg/mL)
- MIC [37]: 3.1 µM (≈ 4.48 µg/mL)
- MIC [38]: 0.8 µM (≈ 1.16 µg/mL)
- MIC [39]: 1.5 µM (≈ 2.17 µg/mL)
- MIC [40]: 5.9 µM (≈ 8.52 µg/mL)
- MIC [41]: 3 µM (≈ 4.33 µg/mL)
- MIC [42]: 5 µM (≈ 7.22 µg/mL)
- MIC [9]: 3 µM (≈ 4.33 µg/mL)
SMILES: CC[C@H](C)[C@H](NC(=O)[C@H](Cc1c[nH]c2ccccc12)NC(=O)[C@H](CCCCN)NC(=O)[C@H](Cc1c[nH]c2ccccc12)NC(=O)[C@H](Cc1c[nH]c2ccccc12)NC(=O)[C@H](CCCNC(=N)N)NC(=O)[C@@H](N)CCCCN)C(=O)N[C@@H](CCCNC(=N)N)C(=O)N[C@@H](Cc1c[nH]c2ccccc12)C(=O)O [KRWWKWIRW]

- MIC [43]: 19.8 µM (≈ 32 µg/mL)
- MIC [44]: ≥ 61.9 µM
- MIC [45]: ≥ 61.9 µM
- MIC [46]: ≥ 39.6 µM
- MIC [47]: ≥ 61.9 µM
- MIC [1]: 79.2 µM (≈ 128 µg/mL)
- MIC [48]: > 158 µM
- MIC [49]: ≥ 158 µM
- MIC [3]: 39.6 µM (≈ 64 µg/mL)
- MIC [50]: ≥ 79.2 µM
- MIC [51]: ≥ 61.9 µM
- MIC [52]: ≥ 79.2 µM
- MIC [53]: 7.43 µM (≈ 12 µg/mL)
- MIC [54]: ≥ 158 µM
- MIC [55]: 30.9 µM (≈ 50 µg/mL)
- MIC [56]: ≥ 61.9 µM
- MIC [57]: ≥ 79.2 µM
- MIC [58]: > 61.9 µM
- MIC [59]: 30.9 µM (≈ 50 µg/mL)
- MIC [9]: 39.6 µM (≈ 64 µg/mL)
SMILES: CC[C@H](C)[C@H](NC(=O)CNC(=O)CNC(=O)[C@@H](N)CC(C)C)C(=O)N[C@H](C(=O)N[C@@H](CO)C(=O)N[C@@H](C)C(=O)N[C@H](C(=O)N[C@@H](CCCCN)C(=O)N[C@@H](CCCCN)C(=O)N[C@H](C(=O)N[C@H](C(=O)N[C@@H](CC(=O)O)C(=O)N[C@@H](Cc1ccccc1)C(=O)N[C@@H](CC(C)C)C(=O)NCC(N)=O)C(C)C)[C@@H](C)CC)C(C)C)C(C)C [LGGIVSAVKKIVDFLG]
